Experimental data taken from patent US20220153751A1, “BIFUNCTIONAL COMPOUNDS” (BioTheryX, Inc., priority 2018, published 2022).

Columns and labels:
Format in all cases: cell-based
CK1α = target: T1, CK1α (Homo sapiens, UniProt P48729+Q96SW2); test: CK1α degradation assay (Western blot, MV-4-11 cells); settings: MV4-11, 6-8 h
T1 construct: Whole cell extracts were prepared using RIPA buffer; endogenous in cells; host or cells: MV-4-11
Method: MV-4-11 cells were grown in RPMI 1640 media supplemented with 10% fetal bovine serum, streptomycin and penicillin.
Cells were cultured at approximately 10^6 cells per mL and incubated in DMSO or the indicated compound for 6-8 h. Whole cell extracts were prepared using RIPA buffer according to manufacturer's protocol (Pierce). Briefly, 3×10^6 cells were washed once in PBS, the cell pellets were resuspended in RIPA buffer and allowed to incubate for 15 minutes on ice. Cells debris was removed by centrifugation and the cleared whole cell lysates were transferred to new tubes for further analysis.
For Western blot analysis, whole cell protein extracts were separated on 4-12% SDS-polyacrylamide gels, transferred to nitrocellulose and probed with the indicated primary antibodies. Membranes were subsequently washed and probed with the appropriate IRDye secondary antibodies (LI-COR). The signal was detected using the Odyssey Imaging System (LI-COR).
The following antibodies were used in these studies: Anti-eRF3/GSPT1: Abcam, ab126090 (Cambridge, Mass.); Anti-Ikaros: Abcam, ab191394 (Cambridge, Mass.); Anti-CK1α: Abcam, ab108296 (Cambridge, Mass.); Anti-CDK9: Santa Cruz Biotechnology, sc13130 (Dallas, Tex.); Anti-CDK16: Millipore Sigma, HPA001366 (St. Louis, Mo.); 3-actin (8H10comD10) mouse monoclonal antibody: Cell Signaling Technology, #3700 (Danvers, Mass.); IRDye 680RD Goat anti-rabbit antibody: LI-COR, 926-68071 (Lincoln, Nebr.); IRDye 800CW Goat anti-mouse antibody: LI-COR, 926-32210 (Lincoln, Nebr.).
CDK9 activities are shown in Table 4 at two different concentrations. CDK16 activities are shown in Table 5 at two different concentrations. In each of Tables 1-5, the % degradation values are reported as “A”, “B”, “C”, or “D”. “A” represents a % degradation value of less than 25% (value <25%). “B” represents a % degradation value of equal to or more than 25% and less than 50% (25%≤value<50%). “C” represents a % degradation value of equal to or more than 50% and less than 75% (50%≤value<75%). “D” represents a % degradation value of equal to or more than 75% (value ≥75%).

IL-1β = IL-1β inhibition assay, LPS-induced PBMCs / CD14+ monocytes (Meso Scale); settings: 1 h pretreatment, 100 ng/mL LPS 18-24 h
How it was run: (§1)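 Thawed human PBMCs or CD14+ mobilized peripheral blood monocytes, 200,000 cells/well in RPMI-1640/10% FBS, pretreated with compound or DMSO 1 h, then stimulated with 100 ng/mL LPS for 18-24 h. Supernatant cytokine measured by Meso Scale; % inhibition binned A–D (<50%, 50–70%, 70–90%, ≥90%), fold-change binned A–D (≤0.1, ≤0.5, ≤1, >1).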

IL-6 = IL-6 inhibition assay, LPS-induced PBMCs / CD14+ monocytes (Meso Scale); settings: 1 h pretreatment, 100 ng/mL LPS 18-24 h
How it was run: as §1

TNF-α = TNF-α inhibition assay, LPS-induced PBMCs / CD14+ monocytes (Meso Scale); settings: 1 h pretreatment, 100 ng/mL LPS 18-24 h
How it was run: as §1

IL-2 = IL-2 fold-change assay, anti-CD3 stimulated PBMCs (Mesoscale); settings: PBMC, PBMCs on anti-human CD3, 24 h, fold difference from the DMSO control
Method: For the IL-2 analysis, 96 well plates were precoated with 1 μg/mL anti-human CD3 antibody (OK3, eBioscience Inc., San Diego, Calif.). After washing with PBS, the indicated compound was added (50 μL/well) followed by PBMCs diluted at 3-4 million cells/mL (150 μL/well). Plates were incubated for 24 h and the supernatants collected for Mesoscale IL-2 analysis. IL-2 activity is measured as fold difference from the DMSO control.
In Table 6, the % inhibition values are reported as “A”, “B”, “C”, or “D”. “A” represents a % inhibition value of less than 50% (value <50%). “B” represents a % inhibition value of equal to or more than 50% and less than 70% (50%≤value<70%). “C” represents a % inhibition value of equal to or more than 70% and less than 90% (70%≤value<90%). “D” represents a % inhibition value of equal or more than 90% (value ≥90%). In Table 7, the fold-change values are reported as “A”, “B”, “C”, or “D”. “A” represents a fold-change value of equal to or less than 0.1 (value ≤0.1). “B” represents a fold-change value of more than 0.1 and equal to or less than 0.5 (0.1<value≤0.5). “C” represents a fold-change value of more than 0.5 and equal to or less than 1 (0.5<value≤1). “D” represents a fold-change value of more than 1 (value >1).

MOLM-13 cells = test: MOLM-13 cell viability assay (CellTiter-Glo); settings: Homo sapiens, MOLM-13, 72 h, 3 days, read-out: MOLM-13 Cell Viability % DMSO at 1 μM
How it was run: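 MOLM-13 cells at 2500 cells/well were exposed to compound for 3 days at 37 °C. Viability was read by CellTiter-Glo luminescence and expressed as % of DMSO control, binned A (<50%), B (50–<70%), C (70–<90%) or D (≥90%).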

GSPT1 = target: T2, GSPT1 (Homo sapiens, UniProt P15170+Q96SW2); test: GSPT1 degradation assay (Western blot, MV-4-11 cells); settings: MV4-11, 6-8 h
T2 construct: Whole cell extracts were prepared using RIPA buffer; endogenous in cells; host or cells: MV-4-11
How it was run: (§2)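 Cells at about 10^6 per mL were exposed to compound or DMSO for 6-8 h, lysed in RIPA buffer, and analysed by SDS-PAGE Western blot with IRDye secondary antibodies on an Odyssey imager. Values are % degradation binned as A <25%, B 25-<50%, C 50-<75%, D ≥75%.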

IKAROS = target: T3, IKAROS (Homo sapiens, UniProt Q13422+Q96SW2); test: IKAROS degradation assay (Western blot, MV-4-11 cells); settings: MV4-11, 6-8 h
T3 construct: endogenous in cells; host or cells: MV-4-11
How it was run: as §2

T2 sequence (P15170 whole entry): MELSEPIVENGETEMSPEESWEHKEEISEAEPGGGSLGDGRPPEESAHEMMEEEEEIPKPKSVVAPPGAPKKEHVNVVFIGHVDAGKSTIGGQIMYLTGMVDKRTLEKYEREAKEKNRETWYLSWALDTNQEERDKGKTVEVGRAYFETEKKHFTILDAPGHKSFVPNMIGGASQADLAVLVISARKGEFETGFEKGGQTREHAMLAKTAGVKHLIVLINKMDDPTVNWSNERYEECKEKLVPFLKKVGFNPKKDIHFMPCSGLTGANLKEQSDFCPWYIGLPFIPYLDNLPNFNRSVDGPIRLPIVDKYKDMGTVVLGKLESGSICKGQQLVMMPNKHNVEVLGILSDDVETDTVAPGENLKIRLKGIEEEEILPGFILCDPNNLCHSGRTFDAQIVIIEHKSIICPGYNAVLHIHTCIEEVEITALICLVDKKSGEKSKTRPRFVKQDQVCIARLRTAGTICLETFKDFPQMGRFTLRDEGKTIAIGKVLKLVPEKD
T2 sequence (Q96SW2 whole entry): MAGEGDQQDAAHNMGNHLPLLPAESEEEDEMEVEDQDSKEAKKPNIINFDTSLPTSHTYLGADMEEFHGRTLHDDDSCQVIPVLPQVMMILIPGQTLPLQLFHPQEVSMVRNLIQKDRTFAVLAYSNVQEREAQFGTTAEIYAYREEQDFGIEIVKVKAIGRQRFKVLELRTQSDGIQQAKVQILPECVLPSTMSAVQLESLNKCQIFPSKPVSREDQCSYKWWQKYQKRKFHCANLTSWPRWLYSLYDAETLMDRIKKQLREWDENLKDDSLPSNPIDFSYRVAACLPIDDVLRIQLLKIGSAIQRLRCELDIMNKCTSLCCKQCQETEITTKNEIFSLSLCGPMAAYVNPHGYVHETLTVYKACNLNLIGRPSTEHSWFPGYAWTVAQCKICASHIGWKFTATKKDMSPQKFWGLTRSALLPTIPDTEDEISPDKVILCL
T2 sequence (Q16531 whole entry partner): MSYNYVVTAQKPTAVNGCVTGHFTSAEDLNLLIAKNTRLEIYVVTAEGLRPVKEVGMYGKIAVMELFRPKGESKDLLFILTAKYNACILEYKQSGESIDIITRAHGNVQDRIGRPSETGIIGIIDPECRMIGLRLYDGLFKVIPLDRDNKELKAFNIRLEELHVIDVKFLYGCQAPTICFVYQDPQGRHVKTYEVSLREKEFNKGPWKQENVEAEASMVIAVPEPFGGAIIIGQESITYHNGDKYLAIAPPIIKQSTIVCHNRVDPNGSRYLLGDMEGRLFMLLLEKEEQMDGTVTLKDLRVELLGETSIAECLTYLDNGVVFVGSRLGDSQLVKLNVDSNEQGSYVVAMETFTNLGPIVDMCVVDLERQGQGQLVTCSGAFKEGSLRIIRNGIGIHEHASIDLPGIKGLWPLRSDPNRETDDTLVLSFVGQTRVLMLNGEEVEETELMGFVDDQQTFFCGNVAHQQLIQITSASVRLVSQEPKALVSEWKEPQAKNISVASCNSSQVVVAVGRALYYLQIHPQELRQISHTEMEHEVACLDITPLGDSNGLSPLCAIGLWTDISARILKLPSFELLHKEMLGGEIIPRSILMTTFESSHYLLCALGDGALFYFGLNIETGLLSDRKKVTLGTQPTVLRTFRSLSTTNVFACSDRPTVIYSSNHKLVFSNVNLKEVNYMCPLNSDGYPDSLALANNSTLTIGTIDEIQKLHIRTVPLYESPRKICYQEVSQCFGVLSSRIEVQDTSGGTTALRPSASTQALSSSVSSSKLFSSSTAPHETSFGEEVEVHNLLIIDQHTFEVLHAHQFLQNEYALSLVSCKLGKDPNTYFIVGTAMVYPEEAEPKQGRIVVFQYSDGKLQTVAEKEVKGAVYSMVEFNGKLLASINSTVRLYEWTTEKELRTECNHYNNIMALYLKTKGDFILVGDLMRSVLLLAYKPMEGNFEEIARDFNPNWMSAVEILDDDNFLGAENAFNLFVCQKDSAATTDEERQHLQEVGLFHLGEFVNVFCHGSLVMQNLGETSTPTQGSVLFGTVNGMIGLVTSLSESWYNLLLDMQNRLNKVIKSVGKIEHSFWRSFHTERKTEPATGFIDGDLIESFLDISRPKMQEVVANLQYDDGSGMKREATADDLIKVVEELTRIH
T3 sequence (Q13422 whole entry): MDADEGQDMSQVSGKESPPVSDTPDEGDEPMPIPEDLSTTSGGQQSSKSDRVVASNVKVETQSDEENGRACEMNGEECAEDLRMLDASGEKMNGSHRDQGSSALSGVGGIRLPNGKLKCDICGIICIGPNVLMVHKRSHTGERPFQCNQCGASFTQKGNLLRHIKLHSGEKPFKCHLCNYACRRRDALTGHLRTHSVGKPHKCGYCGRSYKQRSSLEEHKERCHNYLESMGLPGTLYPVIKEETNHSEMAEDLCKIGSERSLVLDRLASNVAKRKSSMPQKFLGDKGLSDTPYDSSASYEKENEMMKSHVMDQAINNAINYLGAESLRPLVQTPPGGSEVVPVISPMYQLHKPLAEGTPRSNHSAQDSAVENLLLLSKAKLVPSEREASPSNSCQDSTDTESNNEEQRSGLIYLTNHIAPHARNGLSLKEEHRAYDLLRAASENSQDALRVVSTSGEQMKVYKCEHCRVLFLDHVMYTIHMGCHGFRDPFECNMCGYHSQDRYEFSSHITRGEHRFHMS
T3 sequence (Q96SW2 whole entry): as the sequence (Q96SW2 whole entry) above
T3 sequence (Q16531 whole entry partner): as the sequence (Q16531 whole entry partner) above
T1 sequence (P48729 whole entry): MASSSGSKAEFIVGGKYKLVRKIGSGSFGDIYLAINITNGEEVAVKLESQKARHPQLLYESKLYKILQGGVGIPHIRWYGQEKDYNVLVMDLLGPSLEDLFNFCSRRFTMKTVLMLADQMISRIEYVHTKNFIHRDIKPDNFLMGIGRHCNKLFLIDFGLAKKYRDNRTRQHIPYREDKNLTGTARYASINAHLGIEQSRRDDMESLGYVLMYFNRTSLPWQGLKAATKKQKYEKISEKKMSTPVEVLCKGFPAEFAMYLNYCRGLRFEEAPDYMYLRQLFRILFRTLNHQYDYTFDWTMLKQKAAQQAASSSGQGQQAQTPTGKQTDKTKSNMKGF
T1 sequence (Q96SW2 whole entry): as the sequence (Q96SW2 whole entry) above
T1 sequence (Q16531 whole entry partner): as the sequence (Q16531 whole entry partner) above

Row | Structure (SMILES) | Dmax at 1 µM (CK1α) [%] | inhibition at 1 µM (IL-1β) [%] | inhibition at 1 µM (IL-6) [%] | inhibition at 1 µM (TNF-α) [%] | fold induction at 1 µM (IL-2) | viability at 1 µM (MOLM-13 cells) [%] | Dmax at 1 µM (GSPT1) [%] | Dmax at 1 µM (IKAROS) [%]
1 | CC(C)(C)c1cnc(CSc2cnc(NC(=O)C3CCN(CC(=O)NCCOCCNC(=O)NCc4cc5c(s4)C(=O)N(C4CCC(=O)NC4=O)C5)CC3)s2)o1 (stereo not drawn) [Compound 3, 3-{8-Oxo-3-[(3-{2-[2-(2-{4-[(5-{[5-(tert-butyl)-1,3-oxazol-2-yl]methylthio}-1,3-thiazol-2-ylamino)carbonyl]-1-piperidyl}acetylamino)ethoxy]ethyl}ureido)methyl]-2-thia-7-azabicyclo[3.3.0]octa-1(5),3-dien-7-yl}-2,6-piperidinedione] | 25 to 50 | > 90 | > 90 | 70 to 90 | 0.1 to 0.5 | > 90 |  | 
2 | Cn1ncc(-c2nc(N[C@H]3CC[C@H](NC(=O)CCCCCCNCC(=O)Nc4cccc5c4CN([C@H]4CCCC(=O)NC4=O)C5=O)CC3)ncc2Cl)c1CC1CC1 [Compound 9, N-((1r,4r)-4-((5-chloro-4-(5-(cyclopropylmethyl)-1-methyl-1H-pyrazol-4-yl)pyrimidin-2-yl)amino)cyclohexyl)-7-((2-((2-((S)-2,7-dioxoazepan-3-yl)-1-oxoisoindolin-4-yl)amino)-2-oxoethyl)amino)heptanamide] | < 25 | 50 to 70 | < 50 | 50 to 70 | 0.5 to 1 | < 50 | 50 to 75 | 
3 | CC(C)(C)c1cnc(CSc2cnc(NC(=O)C3CCN(CC(=O)NCCCCCCCNC(=O)NCc4cc5c(s4)C(=O)N(C4CCC(=O)NC4=O)C5)CC3)s2)o1 (stereo not drawn) [Compound 18, N-(5-(((5-(tert-butyl)oxazol-2-yl)methyl)thio)thiazol-2-yl)-1-(2-((7-(3-((5-(2,6-dioxopiperidin-3-yl)-6-oxo-5,6-dihydro-4H-thieno[2,3-c]pyrrol-2-yl)methyl)ureido)heptyl)amino)-2-oxoethyl)piperidine-4-carboxamide] | 50 to 75 | > 90 | > 90 | 70 to 90 | ≤ 0.1 | > 90 | 50 to 75 | 25 to 50
4 | Cn1ncc(-c2nc(N[C@H]3CC[C@H](NCC(=O)NCCOCCOCC(=O)NCc4ccc(COc5cccc6c5CN(C5CCC(=O)NC5=O)C6=O)cc4)CC3)ncc2Cl)c1CC1CC1 (stereo partly drawn) [Compound 28, 2-(((1r,4r)-4-((5-chloro-4-(5-(cyclopropylmethyl)-1-methyl-1H-pyrazol-4-yl)pyrimidin-2-yl)amino)cyclohexyl)amino)-N-(2-(2-(2-((4-(((2-(2,6-dioxopiperidin-3-yl)-1-oxoisoindolin-4-yl)oxy)methyl)benzyl)amino)-2-oxoethoxy)ethoxy)ethyl)acetamide] |  | > 90 | > 90 | > 90 | ≤ 0.1 | > 90 | < 25 | 50 to 75
5 | Cn1ncc(-c2nc(N[C@H]3CC[C@H](NCC(=O)NCCCCNCC(=O)NCc4cc5c(s4)C(=O)N(C4CCC(=O)NC4=O)C5=O)CC3)ncc2F)c1CC1CC1 (stereo partly drawn) [Compound 37, 2-(((1r,4r)-4-((4-(5-(cyclopropylmethyl)-1-methyl-1H-pyrazol-4-yl)-5-fluoropyrimidin-2-yl)amino)cyclohexyl)amino)-N-(4-((2-(((5-(2,6-dioxopiperidin-3-yl)-4,6-dioxo-5,6-dihydro-4H-thieno[2,3-c]pyrrol-2-yl)methyl)amino)-2-oxoethyl)amino)butyl)acetamide] | 25 to 50 | > 90 | > 90 | 70 to 90 | 0.1 to 0.5 | 50 to 70 | 50 to 75 | 25 to 50
6 | Cn1ncc(-c2nc(N[C@H]3CC[C@H](NCC(=O)NCCOCCOCCOCCNc4cccc5c4CN(C4CCC(=O)NC4=O)C5=O)CC3)ncc2F)c1CC1CC1 (stereo partly drawn) [Compound 56, 2-(((1r,4r)-4-((4-(5-(cyclopropylmethyl)-1-methyl-1H-pyrazol-4-yl)-5-fluoropyrimidin-2-yl)amino)cyclohexyl)amino)-N-(2-(2-(2-(2-((2-(2,6-dioxopiperidin-3-yl)-1-oxoisoindolin-4-yl)amino)ethoxy)ethoxy)ethoxy)ethyl)acetamide] | 25 to 50 | > 90 | > 90 | > 90 | ≤ 0.1 | > 90 |  | 50 to 75
7 | CC(C)(C)c1cnc(CSc2cnc(NC(=O)C3CCN(CCOCCOCCOCCOCCNCC(=O)NCc4scc5c4CN(C4CCC(=O)NC4=O)C5=O)CC3)s2)o1 (stereo not drawn) [Compound 58, N-(5-(((5-(tert-butyl)oxazol-2-yl)methyl)thio)thiazol-2-yl)-1-(1-(5-(2,6-dioxopiperidin-3-yl)-4-oxo-5,6-dihydro-4H-thieno[3,4-c]pyrrol-1-yl)-3-oxo-8,11,14,17-tetraoxa-2,5-diazanonadecan-19-yl)piperidine-4-carboxamide] | ≥ 75 | > 90 | 70 to 90 | < 50 | 0.5 to 1 | 50 to 70 |  | < 25
8 | Cn1ncc(-c2ncnc(N[C@H]3CC[C@H](NCCCCCCCCNC(=O)NCc4cc5c(s4)C(=O)N(C4CCC(=O)NC4=O)C5)CC3)n2)c1CC1CC1 (stereo partly drawn) [Compound 65, 1-(8-(((1r,4r)-4-((4-(5-(cyclopropylmethyl)-1-methyl-1H-pyrazol-4-yl)-1,3,5-triazin-2-yl)amino)cyclohexyl)amino)octyl)-3-((5-(2,6-dioxopiperidin-3-yl)-6-oxo-5,6-dihydro-4H-thieno[2,3-c]pyrrol-2-yl)methyl)urea] | 50 to 75 | < 50 | < 50 | < 50 | 0.5 to 1 | < 50 | 25 to 50 | 
